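These data come from cells grown in 96-well plates and exposed to compound for 48 hours at five concentrations. TGI marks complete inhibition of growth.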 Where a SMILES comes first, the peptide text is derived from it. The star is where a group is joined. Boc = CC(C)(C)OC(=O)*
Experiments:
Experiment in all cases: DTP human tumour cell line panel, 48 h
HCT-15 colon = system: HCT-15 colon
SK-OV-3 ovarian = system: SK-OV-3 ovarian
HT29 colon = system: HT29 colon
EKVX NSCLC = system: EKVX NSCLC
MDA-N = system: MDA-N
PC-3 prostate = system: PC-3 prostate
MCF7 breast = system: MCF7 breast
LOX IMVI melanoma = system: LOX IMVI melanoma
MDA-MB-435 = system: MDA-MB-435
SNB-75 CNS = system: SNB-75 CNS
HOP-62 NSCLC = system: HOP-62 NSCLC

Structure (SMILES)	TGI (HCT-15 colon)	TGI (SK-OV-3 ovarian)	TGI (HT29 colon)	TGI (EKVX NSCLC)	TGI (MDA-N)	TGI (PC-3 prostate)	TGI (MCF7 breast)	TGI (LOX IMVI melanoma)	TGI (MDA-MB-435)	TGI (SNB-75 CNS)	TGI (HOP-62 NSCLC)
COc1ccc2nc(-c3ccc(O)cc3)sc2c1	36.5 µM	91.2 µM	37.2 µM	35.7 µM	50.8 µM	45.2 µM	> 100 µM	44.9 µM	56 µM	–	–
O=C1CC(c2ccccc2)n2cccc21 (configuration not stated)	> 100 µM	> 100 µM	> 100 µM	> 100 µM	–	> 100 µM	> 100 µM	> 100 µM	> 100 µM	> 100 µM	> 100 µM
C=C1CCC([N+](=O)[O-])[C@](C)(N=O)CC[C@@H]2C1CC2(C)C (some centres not stated)	65.4 µM	> 100 µM	45.4 µM	40.4 µM	> 100 µM	> 100 µM	39.6 µM	41.7 µM	–	45.3 µM	> 100 µM
COC(=O)C1(C)C=CC(=O)C2(C)C1C(O)C1OC3CC(c4ccoc4)C(C)=C3C1(C)C2CC(=O)O (configuration not stated)	> 100 µM	> 100 µM	–	> 100 µM	> 100 µM	> 100 µM	> 100 µM	> 100 µM	> 100 µM	> 100 µM	–
COC(=O)C(Cc1c[nH]c2ccccc12)NC(=O)C(Cc1c[nH]c2ccccc12)NC(=O)C(Cc1c[nH]c2ccccc12)NC(=O)C(Cc1c[nH]c2ccccc12)NC(=O)C(Cc1c[nH]c2ccccc12)NC(=O)C(Cc1c[nH]c2ccccc12)NC(=O)C(Cc1c[nH]c2ccccc12)NC(=O)C(Cc1c[nH]c2ccccc12)NC(=O)OC(C)(C)C (configuration not stated) (Boc-WWWWWWWW-OMe; configuration not given here)	> 100 µM	–	> 100 µM	–	> 100 µM	> 100 µM	> 100 µM	> 100 µM	> 100 µM	> 100 µM	> 100 µM
CO/N=C(\C)c1cccc(Nc2c3ccccc3nc3occc23)c1	50.4 µM	36.4 µM	16.7 µM	37.2 µM	15.8 µM	> 100 µM	28.6 µM	27.4 µM	6 µM	–	20.2 µM
CO/N=C(\C)CCC#Cc1ccccc1C(=O)OC	> 10 µM	> 10 µM	> 10 µM	> 10 µM	> 10 µM	> 10 µM	> 10 µM	> 10 µM	> 10 µM	–	> 10 µM
CC(=O)Nc1c(C)cc2c(nc3n2CCC3O)c1[N+](=O)[O-] (configuration not stated)	> 100 µM	> 100 µM	> 100 µM	> 100 µM	> 100 µM	> 100 µM	> 100 µM	> 100 µM	> 100 µM	> 100 µM	–
O=c1/c(=C/c2ccc(-c3ccc(Cl)cc3Cl)o2)sc2n1[C@@H](c1ccc(Cl)cc1)C=C(c1cc(F)c(Cl)cc1Cl)N=2	> 100 µM	61.7 µM	> 100 µM	–	> 100 µM	> 100 µM	> 100 µM	> 100 µM	> 100 µM	> 100 µM	34.6 µM
